From patent EP0354047A2, “Herbicidal method using atrazine” (MAY & BAKER LIMITED, priority 1988, dated 1990)

Assays:
Format in all cases: in vivo
[1] = tested on: Brachiaria plantaginea (BRAPL); experiment: Experiment 1: field experiment, post-emergence spray, % control 29 days after application
Experimental: (§1) Duplicate 12m² plots were sprayed post-emergence with 250g or 500g/ha Compound 1 (in a composition according to Example 1 as described hereinafter) or 1500g/ha atrazine (in a commercial aqueous suspension concentrate formulation containing 500g/l w/v atrazine or a combination (as a tank mix) of the two herbicides in a volume of 300 litres/ha. The following control figures were recorded on the grass weeds Brachiaria plantaginea (BRAPL), Digitaria horizontalis (DIGHO) and Eleusine indica (ELEIN) 29 days after application.

[2] = tested on: Digitaria horizontalis (DIGHO); experiment: as above
Experimental: as §1

[3] = tested on: Eleusine indica (ELEIN); experiment: as above
Experimental: as §1

[4] = tested on: Amaranthus retroflexus; experiment: Experiment 3: glasshouse, post-emergence, fresh weight after 19 days, % inhibition of growth; conditions: 2 leaves; for inhibition at 2 g/ha / inhibition at 4 g/ha / inhibition at 8 g/ha / inhibition at 16 g/ha / inhibition at 31 g/ha / inhibition at 63 g/ha: Amaranthus retroflexus, post-emergence
Experimental: (§2) A series of experiments was carried out to determine the nature of the biological interaction between atrazine and five compounds of general formula I on a range of weed species. […] The growth stages of the plants at spraying are also presented with the results. Agricultural surfactant (nonyl phenol ethylene oxide condensate containing 9 moles ethylene oxide marketed as 'Agral') was added to all spray dilutions to give 0.2% v/v concentration. […] After 19 days the fresh weight of vegetation in each pot was determined. […] E = […]00003:character} where E, X and Y are percentage inhibition of growth. In addition, the ED50 or ED90 values (the application rates giving 50% or 90% inhibition of growth, respectively) were calculated from the results for the piperidinedione alone and with increasing rates of atrazine.

[5] = tested on: Brassica kaber; experiment: as above; conditions: 2 leaves; for inhibition at 2 g/ha / inhibition at 4 g/ha / inhibition at 8 g/ha / inhibition at 16 g/ha / inhibition at 31 g/ha / inhibition at 63 g/ha: Mutarda arvensis, post-emergence
Experimental: as §2

[6] = tested on: Brassica kaber; experiment: Experiment 4: glasshouse, pre-emergence, fresh weight after 27 days, % inhibition of growth; conditions: for % inhibition of growth: Atrazine 0 g/ha
Experimental: (§3) Glasshouse experiments showing the biological interaction between atrazine and Compound 99 on weed species when applied pre-emergence. […] After 27 days the fresh weight of vegetation in each pot was determined. […] E = […]00005:character} where E, X and Y are percentage inhibition of growth. In addition the ED90 values (the application rate giving 90% inhibition of growth) were calculated from the results for Compound 99 alone and with increasing rates of atrazine. The ED90 values were then used to plot an isobole for each species according to the method of […] op cit. The results of percentage inhibition of growth, the ED values calculated from them and the calculated expected values are given in Table 8.

[7] = tested on: Sida spinosa; experiment: as above; conditions: for % inhibition of growth: Atrazine 0 g/ha
Experimental: as §3

[8] = tested on: Solanum nigrum; experiment: Experiment 3: glasshouse, post-emergence, fresh weight after 19 days, % inhibition of growth; conditions: for inhibition at 2 g/ha / inhibition at 4 g/ha / inhibition at 8 g/ha / inhibition at 16 g/ha / inhibition at 31 g/ha / inhibition at 63 g/ha: Solanum nigrum, post-emergence
Experimental: as §2

SMILES: CC1(C)CC(=O)C(C(=O)c2ccc(Cl)cc2[N+](=O)[O-])C(=O)N1 (stereo not drawn) [Compound 1, 3-(4-chloro-2-nitrobenzoyl)-6,6-dimethylpiperidine-2,4-dione]
- % control observed ([1]; Compound 1 @ 250g/ha): 60%
- % control observed ([1]; Compound 1 @ 500g/ha): 80%
- % control observed ([2]; Compound 1 @ 250g/ha): 70%
- % control observed ([2]; Compound 1 @ 500g/ha): 80%
- % control observed ([3]; Compound 1 @ 250g/ha): 70%
- % control observed ([3]; Compound 1 @ 500g/ha): 80%
- inhibition at 2 g/ha ([4]; Compound 1 2 g/ha alone): 25%
- inhibition at 4 g/ha ([4]; Compound 1 4 g/ha alone): 52%
- inhibition at 8 g/ha ([4]; Compound 1 8 g/ha alone): 73%
- inhibition at 16 g/ha ([4]; Compound 1 16 g/ha alone): 87%
- inhibition at 31 g/ha ([4]; Compound 1 31 g/ha alone): 95%
- inhibition at 63 g/ha ([4]; Compound 1 63 g/ha alone): 96%
- ED₉₀ ([4]; Compound 1 alone): ED₉₀(g/ha) 22.58

SMILES: CC1(C)CC(=O)C(C(=O)c2ccc(C(F)(F)F)cc2[N+](=O)[O-])C(=O)N1 (stereo not drawn) [Compound 99, 3-(2-nitro-4-trifluoromethylbenzoyl)-6,6-dimethylpiperidine-2,4-dione]
- inhibition at 2 g/ha ([4]; Compound 99 2 g/ha alone): 37%
- inhibition at 4 g/ha ([4]; Compound 99 4 g/ha alone): 85%
- inhibition at 8 g/ha ([4]; Compound 99 8 g/ha alone): 88%
- inhibition at 16 g/ha ([4]; Compound 99 16 g/ha alone): 80%
- inhibition at 31 g/ha ([4]; Compound 99 31 g/ha alone): 91%
- inhibition at 63 g/ha ([4]; Compound 99 63 g/ha alone): 98%
- ED₉₀ ([4]; Compound 99 alone): ED₉₀(g/ha) 14
- ED₉₀ ([5]; Compound 99 alone): ED₉₀(g/ha) 31
- inhibition at 2 g/ha ([5]; Compound 99 2 g/ha alone): 22%
- inhibition at 4 g/ha ([5]; Compound 99 4 g/ha alone): 40%
- inhibition at 8 g/ha ([5]; Compound 99 8 g/ha alone): 69%
- inhibition at 16 g/ha ([5]; Compound 99 16 g/ha alone): 58%
- inhibition at 31 g/ha ([5]; Compound 99 31 g/ha alone): 91%
- inhibition at 63 g/ha ([5]; Compound 99 63 g/ha alone): 91%
- % inhibition of growth ([6]; Compound 99 8 g/ha): 0%
- % inhibition of growth ([6]; Compound 99 16 g/ha): 9%
- % inhibition of growth ([6]; Compound 99 31 g/ha): 10%
- % inhibition of growth ([6]; Compound 99 63 g/ha): 32%
- % inhibition of growth ([6]; Compound 99 125 g/ha): 20%
- % inhibition of growth ([6]; Compound 99 250 g/ha): 90%
- ED₉₀ ([6]; Compound 99 alone): ED₉₀(g/ha) 340.34
- % inhibition of growth ([7]; Compound 99 8 g/ha): 0%
- % inhibition of growth ([7]; Compound 99 16 g/ha): 17%
- % inhibition of growth ([7]; Compound 99 31 g/ha): 26%
- % inhibition of growth ([7]; Compound 99 63 g/ha): 52%
- % inhibition of growth ([7]; Compound 99 125 g/ha): 88%
- % inhibition of growth ([7]; Compound 99 250 g/ha): 97%
- ED₉₀ ([7]; Compound 99 alone): ED₉₀(g/ha) 146.26

SMILES: CS(=O)(=O)c1ccc(C(=O)C2C(=O)CCNC2=O)c([N+](=O)[O-])c1 (stereo not drawn) [Compound 110, 3-(4-methylsulphonyl-2-nitrobenzoyl)piperidine-2,4-dione]
- ED₉₀ ([5]; Compound 110 alone): ED₉₀(g/ha) 6.38
- inhibition at 2 g/ha ([5]; Compound 110 2 g/ha alone): 45%
- inhibition at 4 g/ha ([5]; Compound 110 4 g/ha alone): 84%
- inhibition at 8 g/ha ([5]; Compound 110 8 g/ha alone): 98%
- inhibition at 16 g/ha ([5]; Compound 110 16 g/ha alone): 99%
- inhibition at 31 g/ha ([5]; Compound 110 31 g/ha alone): 100%
- inhibition at 63 g/ha ([5]; Compound 110 63 g/ha alone): 100%
- ED₉₀ ([8]; Compound 110 alone, 1 leaf): ED₉₀(g/ha) 5.87
- inhibition at 2 g/ha ([8]; Compound 110 2 g/ha alone, 1 leaf): 38%
- inhibition at 4 g/ha ([8]; Compound 110 4 g/ha alone, 1 leaf): 80%
- inhibition at 8 g/ha ([8]; Compound 110 8 g/ha alone, 1 leaf): 98%
- inhibition at 16 g/ha ([8]; Compound 110 16 g/ha alone, 1 leaf): 100%
- inhibition at 31 g/ha ([8]; Compound 110 31 g/ha alone, 1 leaf): 100%
- inhibition at 63 g/ha ([8]; Compound 110 63 g/ha alone, 1 leaf): 100%

SMILES: CS(=O)(=O)c1ccc(C(=O)C2C(=O)CCNC2=O)c(Cl)c1 (stereo not drawn) [Compound 126, 3-(2-chloro-4-methylsulphonylbenzoyl)piperidine-2,4-dione]
- ED₅₀ ([5]; Compound 126 alone): ED₅₀(g/ha) 28.09
- inhibition at 2 g/ha ([5]; Compound 126 2 g/ha alone): 0%
- inhibition at 4 g/ha ([5]; Compound 126 4 g/ha alone): 0%
- inhibition at 8 g/ha ([5]; Compound 126 8 g/ha alone): 0%
- inhibition at 16 g/ha ([5]; Compound 126 16 g/ha alone): 42%
- inhibition at 31 g/ha ([5]; Compound 126 31 g/ha alone): 69%
- inhibition at 63 g/ha ([5]; Compound 126 63 g/ha alone): 66%
- ED₉₀ ([8]; Compound 126 alone, 2 leaves): ED₉₀(g/ha)4.18
- inhibition at 2 g/ha ([8]; Compound 126 2 g/ha alone, 2 leaves): 72%
- inhibition at 4 g/ha ([8]; Compound 126 4 g/ha alone, 2 leaves): 90%
- inhibition at 8 g/ha ([8]; Compound 126 8 g/ha alone, 2 leaves): 97%
- inhibition at 16 g/ha ([8]; Compound 126 16 g/ha alone, 2 leaves): 100%
- inhibition at 31 g/ha ([8]; Compound 126 31 g/ha alone, 2 leaves): 100%
- inhibition at 63 g/ha ([8]; Compound 126 63 g/ha alone, 2 leaves): 100%
